Reference: patent US11318157B2, “6-6 bicyclic aromatic ring substituted nucleoside analogues for use as PRMT5 inhibitors” (Janssen Pharmaceutica NV, priority 2015, dated 2022)
Like-named read-outs stand apart in the source and are kept apart here.

Key:
PRMT5-MEP50 enzyme [1] = molecular target: T1, PRMT5-MEP50 enzyme (Homo sapiens, UniProt O14744); assay: In vitro assay 1b: high throughput mass spectrometer assay of SAH formation, 1.25 nM enzyme, 120 min; format: biochemical; conditions: averaged values; PRMT5-MEP50, 1.25 nM enzyme, 120 min; read-out: pIC50 Assay 1b (converted)
T1 construct: One virus expresses full length human PRMT5 with Flag-tag at N-terminus; Flag (N); purchased Charles River (Argenta); host or cells: insect cells (Sf9), baculovirus co-infection
T1 sequence (O14744 whole entry): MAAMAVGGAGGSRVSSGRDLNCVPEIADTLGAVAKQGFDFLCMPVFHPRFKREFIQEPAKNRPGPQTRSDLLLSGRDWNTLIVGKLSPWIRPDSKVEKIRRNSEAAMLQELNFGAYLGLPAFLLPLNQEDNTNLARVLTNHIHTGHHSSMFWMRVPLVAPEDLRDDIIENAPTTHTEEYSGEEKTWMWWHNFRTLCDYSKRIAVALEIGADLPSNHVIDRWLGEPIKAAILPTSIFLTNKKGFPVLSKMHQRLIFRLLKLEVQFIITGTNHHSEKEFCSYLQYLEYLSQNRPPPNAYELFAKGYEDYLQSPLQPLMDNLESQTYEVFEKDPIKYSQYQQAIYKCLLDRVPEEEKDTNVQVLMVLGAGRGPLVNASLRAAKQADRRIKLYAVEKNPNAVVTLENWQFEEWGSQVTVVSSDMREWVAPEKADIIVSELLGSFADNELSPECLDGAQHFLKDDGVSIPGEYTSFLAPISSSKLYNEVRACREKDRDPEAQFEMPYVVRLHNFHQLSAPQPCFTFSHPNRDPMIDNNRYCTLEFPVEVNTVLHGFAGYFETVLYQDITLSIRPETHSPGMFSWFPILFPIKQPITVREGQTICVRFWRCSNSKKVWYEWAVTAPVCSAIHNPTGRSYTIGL
T1 sequence (Q9BQA1 whole entry partner): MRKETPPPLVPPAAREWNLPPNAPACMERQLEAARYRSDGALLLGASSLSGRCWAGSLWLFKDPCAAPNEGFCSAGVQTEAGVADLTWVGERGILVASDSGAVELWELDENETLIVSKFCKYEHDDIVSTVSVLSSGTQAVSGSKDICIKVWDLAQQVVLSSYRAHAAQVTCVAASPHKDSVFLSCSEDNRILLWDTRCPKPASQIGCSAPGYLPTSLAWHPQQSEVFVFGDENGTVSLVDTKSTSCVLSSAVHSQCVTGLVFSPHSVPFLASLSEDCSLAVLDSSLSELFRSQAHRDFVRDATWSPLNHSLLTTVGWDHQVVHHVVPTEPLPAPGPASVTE
Text: (§1) Experimental Procedures In Vitro Assay (Assay 1a and 1b)
(§2) PRMT5-MEP50 enzyme was purchased from Charles River (Argenta). The enzyme complex was produced in insect cells (Sf9) infected simultaneously with two baculoviruses. One virus expresses full length human PRMT5 with Flag-tag at N-terminus, the second virus expresses full length MEP50 with His6-TEV cleavage at N-terminus. The protein was affinity purified using anti-Flag (M2) beads eluted with 3×FLAG peptide, followed by His-Select eluted with 0.5M imidazole. Eluted protein was then dialysed against tris-buffered saline (TBS) (pH 8.0) containing 20% glycerol and 3 mM dithiothreitol (DTT).
(§3) Full-length untagged human recombinant histone H2A (residues 1-130, Genbank Accession #NM_021052 MW=14.1 kDa) expressed in E. coli was purchased from Reaction Biology Corporation, Cat #HMT-11-146. Reagents used for making reaction buffer or stopping reaction were purchased including Tris base (Sigma Cat #T-1503), NaCl (Sigma Cat #RGF-3270), MgCl2 (Sigma Cat #M0250), DTTI (Invitrogen Cat #15508-013) and Formic Acid (Riedel deHaen, Cat #33015)
(§4) High Throughput Mass Spectrometer Assay
(§5) PRMT5 catalyzes the sequential methylations of the terminal nitrogen atoms on the guanidine groups of arginine residues within proteins using co-substrate S-adenosyl-L-methionine (AdoMet, SAM), forming mono-methyl (MMA), symmetric-dimethyl arginine (sDMA) and S-adenosyl-L-homocysteine (AdoHcy, SAH). The enzyme activity was determined by following the product SAH formation using high throughput mass spectrometry (Agilent Rapidfire 300 System coupled to a Sciex 4000 series QTrap® triple-quad MS/MS). The reaction buffer was 20 mM Tris-HCl, pH 8.5, 50 mM NaCl, 5 mM MgCl2 and 1 mM DTT. The reaction activity was stopped using 1% formic acid (final concentration).
(§6) The IC50 Studies were performed using eleven point dosing series made for each compound by serially diluted 1:2 in dimethyl sulfoxide (DMSO), with point 12 being a DMSO control. Compounds were first spotted to plates, and followed by addition of 2 μM SAM and 0.6 μM H2A (histone H2A) solution mixture. The same volume of enzyme solution was added to initiate the enzymatic reactions. The final concentrations of the reaction are at 1 μM SAM, 0.3 μM H2A and 10 nM enzyme (assay 1a) or 1.25 nM enzyme (assay 1b). The reaction was incubated at 30° C. for 60 minutes (min) when 10 nM enzyme was used and for 120 min when 1.25 nM enzyme was used. Subsequently, the reaction was quenched by addition of formic acid to a final concentration of 1%. The inhibitions of SAH formation in the presence of compounds were calculated as a percentage of the control relative to the uninhibited reaction as a function of inhibitor concentration. The data were fit as follows: Y=Bottom+(Top−Bottom)/(1+10^((log IC50−X)*h))
(§7) where IC50 is the inhibitor concentration (same unit as X) at 50% inhibition and h is the Hill slope. Y is percent of inhibition, X is log of compound concentration. Bottom and Top are the plateaus in same units as Y.

PRMT5-MEP50 enzyme [2] = molecular target: T1, PRMT5-MEP50 enzyme; assay: In vitro assay 1a: high throughput mass spectrometer assay of SAH formation, 10 nM enzyme, 60 min; format: biochemical; conditions: averaged values, PRMT5-MEP50, 10 nM enzyme, read-out: pIC50 Assay 1a (converted)
Text: as §1, §2, §3, §4, §5, §6, §7

[3] = test system: nuclear symmetric Arginine dimethylation in A549 cells; assay: PD assay (assay 2): inhibition of nuclear symmetric Arginine dimethylation (SYM10 immunohistochemistry), 48 h; format: cell-based; conditions: for IC50: Homo sapiens
Procedure: Experimental Procedure PD Assay (Assay 2)
A549 cells (ATCC, Cat #CCL-185) were cultured in Dulbecco's Modified Eagle's Medium (DMEM) (Sigma, Cat #D5796), supplemented with 10% Fetal Calf Serum (FCS) (HyClone™, Cat #SV30160.03), 100 mM Sodium Pyruvate (Sigma, Cat #S8636), 200 mM L-Glutamine (Sigma, Cat #G7513) and 50 mg/mL gentamycin (Gibco, Cat #15750-037).
Reagents used for buffers were purchased: Dulbecco's phosphate buffered saline (DPBS) without Ca/Mg (Sigma, Cat #D8537), phosphate buffered saline (PBS) 10× (Roche, Cat #11 666 789 001), Formalin solution 10% (Sigma, HT50-1-128-4L), Methanol 100% (Sigma, Cat #32213-2.5L), Triton X-100 (Acros, Cat #215680010), Bovine Serum Albumin (BSA) (Sigma, Cat #A2153), Alexa fluor 488 goat anti-rabbit antibody (Life Technologies, Cat #A11034), HCS CellMask Deep Red Stain (Life Technologies, Cat #H32721), Hoechst Stain (Life Technologies, Cat #33258), Anti-dimethyl-Arginine, sym (SYM10) antibody (Millipore, 07-412).
Immunohistochemistry Procedure
Cells were plated at 400 cells/40 μL/well in 384 well black μplates clear bottom (Perkin Elmer) and overnight incubated at 37° C., 5% CO2. […] 80 nL of the respective dilution of the compounds was added using the Labcyte POD 810 (Labcyte) reaching a final DMSO concentration of 0.2% in cell culture. After an incubation period of 48 h at 37° C. and 5% CO2, cells were fixed in 10% formalin solution for 15 min at room temperature and 20 min in ice-cold methanol, after which they were washed 3× in DPBS. Subsequently, the cells were blocked for 1 h in blocking buffer (PBS+1% BSA and 0.5% Triton X-100) and incubated overnight at 4° C. with the SYM10 antibody diluted 1/2000 in blocking buffer. The cells were washed 3× with washing buffer (PBS+0.1% Triton X-100) and incubated with the Alexa fluor 488 goat anti-rabbit antibody diluted 1/200 in blocking buffer for 1 h at room temperature. Subsequently, they were washed 3× with washing buffer and incubated for 30 min at room temperature with PBS containing a 1/5000 dilution of Hoechst Stain and a 1/5000 dilution of the HCS CellMask Deep Red Stain. After a final wash with PBS, the plates were imaged using the 10×W lens of the Opera® system (Perkin Elmer Life Sciences) using following settings (values in nm):
In the above equations, the following variable names are used: […]
In the above equations, the following controls were used for normalization: […]
Low control: minimum level of symmetrically dimethylated Arginines (cells treated with reference compound at 10 μM).
High control: maximum level of symmetrically dimethylated Arginines (DMSO treated cells).
IC50 and pIC50 (−log IC50) values were calculated using the appropriate software.
The pIC50 values in the Table below are averaged values (Co. No. means compound number; n.d. means not determined).

[4] = A549, averaged values, PD assay, A549 cells, symmetric Arginine dimethylation, read-out: pIC50 Assay 2 (converted)
[5] = A549, read-out: pIC50 Assay 2 (converted)

Row | SMILES | IC50 (PRMT5-MEP50 enzyme [1]) [nM] | IC50 (PRMT5-MEP50 enzyme [2]) [nM] | IC50 [3, 4] [nM] | IC50 [3, 5] [nM] | pIC50 Assay 2 ([3]; averaged values, PD assay, A549 cells, symmetric Arginine dimethylation)
1 | Nc1ncnc2c1ccn2[C@@H]1O[C@H](CCc2ccc3ccncc3c2)[C@@H](O)[C@H]1O [Compound 103] | 1260 | 398 | 7940 | – | –
2 | Nc1ncnc2c1c(F)cn2[C@@H]1O[C@H](COc2ccc3cccnc3c2)[C@@H](O)[C@H]1O [Compound 44] | 126 | 63.1 | 251 | – | –
3 | Nc1ccc2ccc(CC[C@H]3C[C@@H](n4ccc5c(Cl)ncnc54)[C@H](O)[C@@H]3O)cc2n1 [Compound 110] | 1.58 | 2 | 0.501 | – | –
4 | Cc1ncnc2c1ccn2[C@@H]1O[C@H](CCc2ccc3ccc(NCc4ccc(Cl)cc4)nc3c2)[C@@H](O)[C@H]1O [Compound 177] | 31.6 | 10 | 63.1 | – | –
5 | Nc1ncnc2c1ccn2[C@@H]1O[C@H](COc2ccc3ccncc3c2)[C@@H](O)[C@H]1O [Compound 13] | 2000 | 794 | 15800 | – | –
6 | Nc1ncnc2c1ccn2[C@@H]1C[C@H](CCc2ccc3cccnc3c2)[C@@H](O)[C@H]1O [Compound 56] | 15.8 | 6.31 | – | 7.94 | –
7 | Nc1ncnc2c1ccn2[C@@H]1C[C@H](OCc2ccc3cnccc3c2)[C@@H](O)[C@H]1O [Compound 85] | 7940 | > 10000 | 12600 | – | –
8 | O[C@@H]1[C@H](O)[C@@H](COc2ccc3ccc(NCc4ccc(Cl)cc4)nc3c2)O[C@H]1n1ccc2cncnc21 [Compound 173] | 15.8 | 2 | 39.8 | – | –
9 | Cc1cc2c(N)ncnc2n1[C@@H]1O[C@H](COc2ccc3cc(Br)cnc3c2)[C@@H](O)[C@H]1O [Compound 108] | 100 | 39.8 | 63.1 | – | –
10 | Nc1ncnc2c1ccn2[C@@H]1O[C@H](COc2cc3ncc(Br)cc3cc2Cl)[C@@H](O)[C@H]1O [Compound 92] | – | 63.1 | 794 | – | –
11 | Nc1ncnc2c1ccn2[C@@H]1O[C@H](C#Cc2ccc3cccnc3c2)[C@@H](O)[C@H]1O [Compound 63] | 126 | 25.1 | 200 | – | –
12 | CNc1ccc2ccc(OC[C@H]3O[C@@H](n4ccc5c(N)ncnc54)[C@H](O)[C@@H]3O)cc2n1 [Compound 185] | 7.94 | 3.98 | 50.1 | – | –
13 | Nc1ncnc2c1ccn2[C@@H]1O[C@H](COc2ccc3cc(Cl)cnc3c2)[C@@H](O)[C@H]1O [Compound 25] | 39.8 | 12.6 | 126 | – | –
14 | Nc1ncnc2c1ccn2[C@@H]1O[C@H](CSc2ccc3cccnc3c2)[C@@H](O)[C@H]1O [Compound 48] | – | 100 | 398 | – | –
15 | Nc1ncnc2c1ccn2[C@@H]1O[C@H](COc2ccc3ccc(Cl)nc3c2)[C@@H](O)[C@H]1O [Compound 20] | – | 2000 | 6310 | – | –
16 | Cc1c(OC[C@H]2O[C@@H](n3ccc4c(N)ncnc43)[C@H](O)[C@@H]2O)ccc2cccnc12 [Compound 39] | – | 2510 | 2000 | – | –
17 | COc1ncnc2c1ccn2[C@@H]1C[C@H](CCc2ccc3ccc(N)nc3c2)[C@@H](O)[C@H]1O [Compound 79] | – | 0.398 | < 1.17 | – | –
18 | Nc1ncnc2c1ccn2[C@@H]1O[C@H](COc2cnc3cccnc3c2)[C@@H](O)[C@H]1O [Compound 14] | – | 1260 | > 20000 | – | –
19 | Nc1ccc2ccc(CC[C@H]3C[C@@H](n4ccc5cncnc54)[C@H](O)[C@@H]3O)cc2n1 [Compound 77] | – | 0.501 | < 1.17 | – | –
20 | Nc1ncnc2c1ccn2[C@@H]1O[C@H](COc2cccc3ccncc23)[C@@H](O)[C@H]1O [Compound 7] | – | 1260 | ~17400 | – | –
21 | Nc1ncnc2c1ccn2[C@@H]1C[C@H](/C=C/c2ccc3cc(Cl)cnc3c2)[C@@H](O)[C@H]1O [Compound 57] | – | 31.6 | ~151 | – | –
22 | Nc1nc2cc(CC[C@H]3C[C@@H](n4ccc5c(N)ncnc54)[C@H](O)[C@@H]3O)ccc2cc1Cl [Compound 81] | – | 0.251 | 0.2 | – | –
23 | CNC(=O)c1ccc2ccc(OC[C@H]3O[C@@H](n4ccc5c(N)ncnc54)[C@H](O)[C@@H]3O)cc2n1 [Compound 246] | – | 3160 | > 20000 | – | –
24 | CC(Oc1ccc2cccnc2c1)[C@H]1O[C@@H](n2ccc3c(N)ncnc32)[C@H](O)[C@@H]1O (single isomer, unassigned) [Compound 67] | – | 100 | – | – | 6.5
25 | CNc1ncnc2c1ccn2[C@@H]1C[C@H](CCc2ccc3ccc(N)nc3c2)[C@@H](O)[C@H]1O [Compound 78] | – | 1.26 | – | 0.316 | –
26 | Nc1ncnc2c1ccn2[C@@H]1O[C@H](COc2ccc3ccccc3c2)[C@@H](O)[C@H]1O [Compound 9] | – | 3160 | > 20000 | – | –
27 | Nc1ncnc2c1c(Br)cn2[C@@H]1O[C@H](COc2ccc3cccnc3c2)[C@@H](O)[C@H]1O [Compound 45] | – | 251 | 631 | – | –
28 | Nc1ncnc2c1ccn2[C@@H]1O[C@H](COc2ccc3cc(Br)cnc3c2Cl)[C@@H](O)[C@H]1O [Compound 94] | – | 1000 | ~1000 | – | –
29 | COc1cc2c(Cl)ccnc2cc1OC[C@H]1O[C@@H](n2ccc3c(N)ncnc32)[C@H](O)[C@@H]1O [Compound 36] | – | 7940 | > 20000 | – | –
30 | Nc1ncnc2c1ccn2[C@@H]1O[C@H](COc2ccc3nccnc3c2)[C@@H](O)[C@H]1O [Compound 15] | – | 1000 | > 3980 | – | –
